# According to paper PMC11334910, “Activity-Based Protein Profiling of RHBDL4 Reveals Proteolysis of the Enzyme and a Distinct Inhibitor Profile” (ACS Chemical Biology, 2024):
# Like-named read-outs stand apart in the source and are kept apart here.
# Tests used:
# [1] = molecular target: T1, hPARL (presenilin-associated rhomboid-like protein, mitochondrial) (Homo sapiens, UniProt Q9H300); assay: competitive ABPP, dose-response; assay type: biochemical
# T1 construct: gene PARL; hPARL in HEK293T membrane proteome
# [2] = molecular target: T2, human RHBDL4 (hRHBDL4) (Homo sapiens, UniProt Q8TEB9); assay: competitive ABPP with FP-Rh, dose-response; assay type: biochemical; parameters: gene RHBDD1
# T2 sequence (Q8TEB9 1-315): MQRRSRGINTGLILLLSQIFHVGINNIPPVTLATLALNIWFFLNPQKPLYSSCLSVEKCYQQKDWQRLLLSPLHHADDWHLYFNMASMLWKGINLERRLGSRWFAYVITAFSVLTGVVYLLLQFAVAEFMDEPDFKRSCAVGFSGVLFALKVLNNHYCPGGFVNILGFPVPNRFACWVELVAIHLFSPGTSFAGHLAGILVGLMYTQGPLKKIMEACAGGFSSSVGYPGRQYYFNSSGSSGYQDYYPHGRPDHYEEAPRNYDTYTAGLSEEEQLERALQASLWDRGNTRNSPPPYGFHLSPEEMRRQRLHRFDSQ
# [3] = molecular target: T2, human RHBDL4 (hRHBDL4); assay: competitive ABPP with FP-Rh at […]; assay type: biochemical; parameters: gene RHBDD1; hRHBDL4 in HEK293T membrane proteome
# [4] = molecular target: T1, hPARL (presenilin-associated rhomboid-like protein, mitochondrial); assay: competitive ABPP, dose-response; assay type: cell-based
# T1 sequence (Q9H300 53-379): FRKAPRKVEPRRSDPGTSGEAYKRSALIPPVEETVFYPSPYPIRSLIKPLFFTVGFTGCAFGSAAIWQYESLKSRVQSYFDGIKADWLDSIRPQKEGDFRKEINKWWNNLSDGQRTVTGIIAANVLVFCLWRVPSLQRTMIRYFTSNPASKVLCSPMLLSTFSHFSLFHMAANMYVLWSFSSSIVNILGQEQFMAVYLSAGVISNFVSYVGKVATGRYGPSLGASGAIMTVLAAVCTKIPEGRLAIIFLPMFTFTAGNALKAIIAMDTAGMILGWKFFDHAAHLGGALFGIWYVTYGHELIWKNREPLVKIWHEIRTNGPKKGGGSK
structure (smiles),measurement,setting,value
"O=c1oc(Cl)c(Cl)c2ccccc12 [3,4-DCI]",IC50,[1],25 µM
same,IC50,[2],1.1 µM
O=C(OCN1C(=O)c2ccccc2S1(=O)=O)c1ccccc1Cl [BSc5195],competitive ABPP with FP-Rh at 100 μM,[3],nearly complete competition at 100
O=C1CCC(=O)N1S(=O)(=O)c1ccccc1 [WHP3A],IC50,[4],low micromolar
